Data: US20240393340A1, “PROGNOSIS AND PREDICTIVE BIOMARKERS AND BIOLOGICAL APPLICATIONS THEREOF” (INSTITUT GUSTAVE ROUSSY, priority 2013, published 2024)
Where two headings read alike, the source gives them in different places.

Assays:
Mel624 [1] = assay: Short-term growth-inhibition assay (Example 1); type: cell-based; settings: Mel624; short-term and long-term proliferation assays, Example 1
Protocol: (§1) FIGS. 1A-1B: Short-term growth-inhibition assay of a panel of melanoma cell lines including BRAF (V600E) cell lines and an NRAS (Q61R) mutated cell line. FIG. 1A. Cells were treated with increasing concentrations of N-[3-[(5-Chloro-1H-pyrrolo[2,3-b]pyridin-3-yl)carbonyl]-2,4-difluorophenyl]-1-propanesulfonamide (PLX-4720) for 72 h and cell viability was determined using CellTiter-Blue by measuring the absorbance at 540 nm in a microplate reader. Error bars show data +standard error. Means were derived from four replicates (n=4). FIG. 1B. Long-term colony formation assay of the indicated cells. Cells were grown in the absence or presence of PLX-4720 at the indicated concentrations for 15-20 days. For each cell line, all dishes were fixed at the same time, stained and photographed. […]
(§2) The inventors quantified the effect of exposing these cell lines to PLX-4720 on the half-maximum inhibitory concentration (IC50) (Table 1).

A2058 [2] = assay: Short-term growth-inhibition assay (Example 1); type: cell-based; settings: A2058; short-term and long-term proliferation assays, Example 1
Protocol: as §1, §2

Mel624 [3] = assay: WST-1 cell proliferation assay (Example 2); type: cell-based; settings: for sensitivity of the cell line compared to other cell lines (e.g. A375, Mel888): Mel624, short-term and long-term proliferation assays, Example 2
Protocol: (§3) Cell viability was determined using the WST-1 cell proliferation assay. Data are means±s.d. (n=3). FIG. 7B: Long-term colony formation assay of the indicated cell lines. Cells were grown in the absence or presence of vemurafenib at the indicated concentrations for two weeks. For each cell line, all dishes were fixed at the same time, stained and photographed.
(§4) Cell viability was determined using the WST-1 cell proliferation assay. Data are means±s.d. (n=4). […] The upper left region of the figure represents increasing degrees of synergy. The minimum and maximum Bliss index values were shown as an interval within square brackets under each isobologram. The Bliss index was calculated as the ratio Observed/Expected where an index=1, […] and >1 indicates additive, antagonistic and synergistic effects, respectively.
(§5) Cell proliferation was measured using a WST-1 reagent (Roche Applied Science, IN, USA). Melanoma cells were plated (5000 cells per well) in 96-well tissue culture plates. After 24 h, the cells were treated with drugs or DMSO at the indicated concentrations, in triplicates. WST-1 reagent was added to the wells and incubated at 37° C. for 2 h before and after the treatment period of 48 h. […] Cell proliferation is expressed as percent of the absorbance compared to mock-treated cells.
(§6) For clonogenic assays, cells were plated at low density (1×10^3 cells per well in a 6-well tissue culture plates) in fresh media. After 24 h, cells were treated with drugs or DMSO at the indicated concentrations, in duplicates. After 14 days cells were stained with 0.5% (w/v) crystal violet in 70% ethanol and the number of colonies was counted.

A2058 [4] = assay: WST-1 cell proliferation assay (Example 2); type: cell-based; settings: for IC50: A2058, 48 h; for sensitivity of the cell line compared to other cell lines (e.g. A375, Mel888): A2058, short-term and long-term proliferation assays, Example 2
Protocol: as §3, §4, §5, §6

SKMEL 28 = assay: WST-1 cell proliferation assay (Example 2); type: cell-based
Protocol: as §3, §5

Mel10 = assay: WST-1 cell proliferation assay (Example 2); type: cell-based
Protocol: as §3, §5

Mel888 = assay: WST-1 cell proliferation assay (Example 2); type: cell-based
Protocol: as §3, §5

A375 = assay: WST-1 cell proliferation assay (Example 2); type: cell-based
Protocol: as §3, §5

melanoma = settings: patients, cited from earlier work
[5] = Homo sapiens, SK-MEL-28, SKMEL 28, 48 h, read-out: IC50
[6] = Homo sapiens, A-375, A375, 48 h, read-out: IC50

Row | Compound | IC50 (Mel624 [3]; Mel624, 48 h, read-out: IC50) | sensitivity of the cell line compared to other cell lines (e.g. A375, Mel888) (Mel624 [3]) | IC50 (A2058 [4]; read-out: IC50) | sensitivity of the cell line compared to other cell lines (e.g. A375, Mel888) (A2058 [4]) | IC50 (SKMEL 28; SKMEL 28, 48 h, read-out: IC50) | IC50 (Mel10; MEL10, 48 h, read-out: IC50) | IC50 (Mel888; Mel888, 48 h, read-out: IC50) | IC50 (A375; A375, 48 h, read-out: IC50) | IC50 (A2058 [4]; Homo sapiens, read-out: IC50) | IC50 (SKMEL 28; [5]) | IC50 (A375; [6]) | other results
1 | O=C(O)C(Cc1ccccc1[N+](=O)[O-])=NNc1nc(-c2ccc(Cl)c(Cl)c2)cs1 (mixture of isomers) [4EGi-1] | 26000 nM | more sensitive | 50000 nM | more sensitive | > 100000 nM | > 100000 nM | 77000 nM | > 100000 nM |  |  |  | sensitivity of the cell line compared to the other BRAF (V600E)-mutated melanoma cell lines (Mel624 [1]): more sensitive; sensitivity of the cell line compared to the other BRAF (V600E)-mutated melanoma cell lines (A2058 [2]): more sensitive
2 | COC(=O)[C@H]1[C@@H](O)[C@@]2(O)c3c(OC)cc(O[C@@H]4O[C@@H]([C@H](O)CO)CO[C@H]4OC)cc3O[C@@]2(c2ccc(OC)cc2)[C@@H]1c1ccccc1 [Silvestrol] |  |  |  |  |  |  |  |  |  |  |  | IC50 (Mel624 [3]; 48 h): 4 nM; IC50 (A2058 [4]; Homo sapiens): 2 nM; IC50 (SKMEL 28; Homo sapiens, SK-MEL-28, 48 h): 3 nM; IC50 (Mel10; 48 h): 46 nM; IC50 (Mel888; 48 h): 17 nM; IC50 (A375; Homo sapiens, A-375, 48 h): 21 nM
3 | CC(C)(C)c1nc(-c2cccc(NS(=O)(=O)c3c(F)cccc3F)c2F)c(-c2ccnc(N)n2)s1 [dabrafenib] |  |  |  |  |  |  |  |  |  |  |  | response rate (objective responses) (melanoma): 50%; progression-free survival (melanoma; compared with chemotherapy): 5.1 months; progression-free survival hazard ratio (melanoma; versus chemotherapy): 0.30
4 | CCCS(=O)(=O)Nc1ccc(F)c(C(=O)c2c[nH]c3ncc(-c4ccc(Cl)cc4)cc23)c1F [Vemurafenib] | 2000 nM |  |  |  |  | > 10000 nM | 100 nM |  | 2400 nM | 400 nM | 400 nM | 
5 | Nc1ncnc2n[nH]c(Nc3ccc(F)cc3)c12 [CGP 57380] | > 100000 nM | less sensitive | > 100000 nM | less sensitive | 60000 nM | 28000 nM | 25000 nM | 35000 nM |  |  |  | 
6 | O=C(NOC[C@H](O)CO)c1ccc(F)c(F)c1Nc1ccc(I)cc1F [PD 0325901] | 96 nM | less sensitive |  | less sensitive |  | 3 nM | 2 nM |  | 33 nM | 9 nM | 10 nM | 
